Experimental data from US20160244436A1, “NOVEL FUNCTIONALIZED 5-(PHENOXYMETHYL)-1,3-DIOXANE ANALOGS EXHIBITING CYTOCHROME P450 INHIBITION AND THEIR METHOD OF USE” (CORTENDO AB (PUBL), priority 2013, published 2016).

Key:
Type in all cases: cell-based
recombinant CYP-17 = target: T1, recombinant CYP-17 (Homo sapiens, UniProt P05093); assay: Cyp17 assay: AD293 cells over-expressing recombinant CYP-17, 3H-acetic acid release from [21-3H] 17α-hydroxyl-Pregnenolone
T1 construct: expressed in transfected cells; host or cells: AD293
T1 sequence (P05093 1-508): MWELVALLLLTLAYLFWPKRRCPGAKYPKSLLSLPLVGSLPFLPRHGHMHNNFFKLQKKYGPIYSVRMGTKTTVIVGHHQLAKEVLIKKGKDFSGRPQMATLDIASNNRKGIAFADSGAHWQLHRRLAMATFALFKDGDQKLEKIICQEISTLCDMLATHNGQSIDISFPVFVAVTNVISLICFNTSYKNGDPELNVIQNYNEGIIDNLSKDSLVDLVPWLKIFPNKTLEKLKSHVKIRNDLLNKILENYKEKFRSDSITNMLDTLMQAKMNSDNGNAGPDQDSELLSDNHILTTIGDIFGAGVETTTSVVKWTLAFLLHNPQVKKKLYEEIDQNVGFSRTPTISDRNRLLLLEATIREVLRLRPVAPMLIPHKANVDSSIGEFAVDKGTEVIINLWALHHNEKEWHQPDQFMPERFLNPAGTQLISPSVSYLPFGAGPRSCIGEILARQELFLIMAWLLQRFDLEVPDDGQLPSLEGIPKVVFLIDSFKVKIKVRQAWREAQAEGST
Experimental: Cyp17 assay protocol: AD293 cells that stably over-express recombinant CYP-17 were seeded in 96 well plates coated with poly D-lysine (15,000 cell per well) and incubated at 37° C. for 24 hours in Dulbecco's Modified Eagle Medium (DMEM) with Fetal Bovine Serum (FBS) that is stripped of hormones by charcoal treatment. The media is then removed, the cells are washed once with Phosphate buffer saline solution, and 50 μL Dulbecco's Modified Eagle Medium (DMEM) with Fetal Bovine Serum (FBS) that is stripped of hormones by charcoal treatment is added. Compounds of the disclosure are then added to the wells in eight concentration spanning 10 μM to 4.5 nM, and the plates are incubated for an additional 60 minutes at 37° C. [21-^3H] 17α-hydroxyl-Pregnenolone is then added (50 nCi per well, 31.25 nM) and the plates are incubated for an additional 4 hours at 37° C. The media is then collected, 200 μL, of chloroform is added, and the mixture is shaken for 1 hour. The aqueous layer is then separated and analyzed for the presence of ^3H-acetic acid using a Perkin Elmer Topcount NXT to determine IC50s of the compounds of the disclosure.

recombinant CYP-11 = target: T2, recombinant CYP-11 (Homo sapiens, UniProt P15538); assay: Cyp11 assay: AD293 cells over-expressing recombinant CYP-11, cortisol formation from 11-deoxycortisol by LC/MS
T2 construct: expressed in transfected cells; host or cells: AD293
T2 sequence (P15538 25-503): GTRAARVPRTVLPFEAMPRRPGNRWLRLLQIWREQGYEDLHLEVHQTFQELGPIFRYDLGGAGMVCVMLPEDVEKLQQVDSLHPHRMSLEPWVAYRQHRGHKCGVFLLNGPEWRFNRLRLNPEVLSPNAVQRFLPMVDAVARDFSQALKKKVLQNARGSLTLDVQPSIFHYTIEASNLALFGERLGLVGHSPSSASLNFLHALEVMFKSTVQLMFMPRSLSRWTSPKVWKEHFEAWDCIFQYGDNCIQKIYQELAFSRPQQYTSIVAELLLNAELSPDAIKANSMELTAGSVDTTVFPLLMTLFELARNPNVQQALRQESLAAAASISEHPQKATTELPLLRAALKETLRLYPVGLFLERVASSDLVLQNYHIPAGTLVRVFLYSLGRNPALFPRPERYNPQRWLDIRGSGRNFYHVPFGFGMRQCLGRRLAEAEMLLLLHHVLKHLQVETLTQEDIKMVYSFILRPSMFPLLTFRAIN
Experimental: Cyp11 assay protocol: AD293 cells that stably over-express recombinant CYP-11 were seeded in 96 well plates coated with poly D-lysine (15,000 cell per well) and incubated at 37° C. for 24 hours in Dulbecco's Modified Eagle Medium (DMEM) with Fetal Bovine Serum (FBS) that is stripped of hormones by charcoal treatment. The media is then removed, the cells are washed once with Phosphate buffer saline solution, and 50 μL Dulbecco's Modified Eagle Medium (DMEM) with Fetal Bovine Serum (FBS) that is stripped of hormones by charcoal treatment is added. Compounds of the disclosure are then added to the wells in eight concentration spanning 10 μM to 4.5 nM, and the plates are incubated for an additional 60 minutes at 37° C. 11-deoxycortisol is then added (2.0 μM) and the plates are incubated for an additional 12 hours at 37° C. After incubation, 50 uL of the supernatant (medium) is transferred into a fresh plate and 150 uL of an acetonitrile solution containing 200 ng/ml of Telmisartan is added. The sample is mixed and then placed in a centrifuge at 2000 rpm for 5 minutes. 100 uL of the supernatant is transferred into a fresh 96 well deep well plate, 100 uL of 1:1 methanol:water was added, the solution was mixed and then analyzed by LC/MS for the presence of cortisol using an Agilent 1200 RRLC/ABSCIEX API4000 LC-MS or Shimadzu Prominance/ABSCIEX API4000 LC-MS to determine IC5os of the compounds of the disclosure.

recombinant CYP-21 = target: T3, recombinant CYP-21 (Homo sapiens, UniProt P08686); assay: Cyp21 assay: AD293 cells over-expressing recombinant CYP-21, 11-deoxycortisol formation from 17α-OH Progesterone by LC/MS
T3 construct: expressed in transfected cells; host or cells: AD293
T3 sequence (P08686 1-495): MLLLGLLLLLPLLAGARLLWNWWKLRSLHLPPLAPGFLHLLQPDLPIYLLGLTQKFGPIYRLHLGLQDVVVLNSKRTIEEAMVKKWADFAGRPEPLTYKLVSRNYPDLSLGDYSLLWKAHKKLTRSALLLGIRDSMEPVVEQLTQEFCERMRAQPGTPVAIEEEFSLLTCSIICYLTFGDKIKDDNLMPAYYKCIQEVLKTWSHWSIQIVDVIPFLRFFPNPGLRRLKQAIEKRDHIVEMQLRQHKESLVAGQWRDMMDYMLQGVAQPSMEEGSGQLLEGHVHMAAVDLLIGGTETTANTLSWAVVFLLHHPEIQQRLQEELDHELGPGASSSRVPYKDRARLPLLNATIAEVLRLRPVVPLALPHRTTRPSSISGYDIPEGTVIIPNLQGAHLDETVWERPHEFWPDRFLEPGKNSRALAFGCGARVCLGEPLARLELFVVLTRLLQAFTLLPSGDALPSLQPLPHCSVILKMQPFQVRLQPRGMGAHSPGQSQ
Experimental: Cyp21 assay protocol: AD293 cells that stably over-express recombinant CYP-21 were seeded in 96 well plates coated with poly D-lysine (10,000 cell per well) and incubated at 37° C. for 24 hours in Dulbecco's Modified Eagle Medium (DMEM) with Fetal Bovine Serum (FBS) that is stripped of hormones by charcoal treatment. The media is then removed, the cells are washed once with Phosphate buffer saline solution, and 50 μL Dulbecco's Modified Eagle Medium (DMEM) with Fetal Bovine Serum (FBS) that is stripped of hormones by charcoal treatment is added. Compounds of the disclosure are then added to the wells in eight concentration spanning 10 μM to 4.5 nM, and the plates are incubated for an additional 60 minutes at 37° C. 17α-OH Progesterone is then added (1.0 μM) and the plates are incubated for an additional 45 minutes at 37° C. After incubation, 50 uL of the supernatant (medium) is transferred into a fresh plate and 150 uL of an acetonitrile solution containing 200 ng/ml of Telmisartan is added. The sample is mixed and then placed in a centrifuge at 2000 rpm for 5 minutes. 100 uL of the supernatant is transferred into a fresh 96 well deep well plate, 100 uL of 1:1 methanol:water was added, the solution was mixed and then analyzed by LC/MS for the presence of 11-deoxycortisol using an Agilent 1200 RRLC/ABSCIEX API4000 LC-MS or Shimadzu Prominance/ABSCIEX API4000 LC-MS to determine IC5os of the compounds of the disclosure.

SMILES	IC50 (recombinant CYP-17)	IC50 (recombinant CYP-11)	IC50 (recombinant CYP-21)
CCOC(=O)CNC(=O)N1CCN(c2ccc(CO[C@H]3CO[C@@](Cn4ccnc4)(c4ccccc4Cl)OC3)cc2)CC1 [Example 510019]	≥ 10000 nM	5800 nM	–
Clc1ccc([C@]2(Cn3ccnc3)OC[C@@H](OCc3ccc(-c4ccncc4)cc3)CO2)c(Cl)c1 [Example 500024]	33 nM	23 nM	68 nM
CCOC(=O)CNC(=O)N1CCN(c2ccc(CO[C@H]3CO[C@](Cn4ccnc4)(c4ccccc4Cl)OC3)cc2)CC1 [Example 510018]	40 nM	107 nM	2800 nM
Clc1ccccc1[C@]1(Cn2ccnc2)OC[C@H](OCc2ccc(N3CCOCC3)cc2)CO1 [Example 500006]	8000 nM	–	4760 nM
Clc1ccccc1[C@]1(Cn2ccnc2)OC[C@@H](OCc2ccc(N3CCOCC3)cc2)CO1 [Example 500005]	260 nM	–	960 nM
CN(C)C(=O)N1CCN(c2ccc(CO[C@H]3CO[C@](Cn4ccnc4)(c4ccccc4Cl)OC3)cc2)CC1 [Example 510013]	27 nM	70 nM	800 nM
O=S(=O)(C1CC1)N1CCN(c2ccc(CO[C@H]3CO[C@](Cn4ccnc4)(c4ccc(Cl)cc4Cl)OC3)cc2)CC1 [Example 500018]	11 nM	6 nM	262 nM
CS(=O)(=O)N1CCN(c2ccc(CO[C@H]3CO[C@@](Cn4ccnc4)(c4ccccc4Cl)OC3)cc2)CC1 [Example 500013]	1500 nM	–	2500 nM
O=S(=O)(c1cccnc1)N1CCN(c2ccc(CO[C@H]3CO[C@](Cn4ccnc4)(c4ccc(Cl)cc4Cl)OC3)cc2)CC1 [Example 500025]	13 nM	12 nM	273 nM
O=S(=O)(c1c[nH]cn1)N1CCN(c2ccc(CO[C@H]3CO[C@](Cn4ccnc4)(c4ccc(Cl)cc4Cl)OC3)cc2)CC1 [Example 500023]	67 nM	14 nM	426 nM
COCCOC(=O)N1CCN(c2ccc(CO[C@H]3CO[C@](Cn4ccnc4)(c4ccccc4Cl)OC3)cc2)CC1 [Example 510014]	20 nM	140 nM	570 nM
O=S(=O)(CCCCl)N1CCN(c2ccc(CO[C@H]3CO[C@](Cn4ccnc4)(c4ccc(Cl)cc4Cl)OC3)cc2)CC1 [Example 500017]	106 nM	27 nM	1100 nM
CCS(=O)(=O)N1CCN(c2ccc(CO[C@H]3CO[C@](Cn4ccnc4)(c4ccc(Cl)cc4Cl)OC3)cc2)CC1 [Example 500021]	9 nM	200 nM	130 nM
O=S(=O)(c1cccc(OC(F)(F)F)c1)N1CCN(c2ccc(CO[C@H]3CO[C@](Cn4ccnc4)(c4ccc(Cl)cc4Cl)OC3)cc2)CC1 [Example 500022]	101 nM	13 nM	170 nM
CS(=O)(=O)N1CCN(c2ccc(CO[C@H]3CO[C@](Cn4ccnc4)(c4ccccc4Cl)OC3)cc2)CC1 [Example 500012]	12 nM	100 nM	1520 nM
N#Cc1cccc(S(=O)(=O)N2CCN(c3ccc(CO[C@H]4CO[C@](Cn5ccnc5)(c5ccc(Cl)cc5Cl)OC4)cc3)CC2)c1 [Example 500016]	75 nM	37 nM	415 nM
CC(=O)N1CCN(c2ccc(CO[C@H]3CO[C@@](Cn4ccnc4)(c4ccc(Cl)cc4Cl)OC3)cc2)CC1 [Example 500019]	1100 nM	12 nM	–
COCCOC(=O)N1CCN(c2ccc(CO[C@H]3CO[C@@](Cn4ccnc4)(c4ccccc4Cl)OC3)cc2)CC1 [Example 510012]	2500 nM	–	800 nM
CC(C)S(=O)(=O)N1CCN(c2ccc(CO[C@H]3CO[C@](Cn4ccnc4)(c4ccc(Cl)cc4Cl)OC3)cc2)CC1 [Example 500020]	11 nM	25 nM	110 nM
CC(=O)N1CCN(c2ccc(CO[C@H]3CO[C@](Cn4ccnc4)(c4ccccc4Cl)OC3)cc2)CC1 [Example 500003]	146 nM	521 nM	1480 nM
CC(=O)N1CCN(c2ccc(CO[C@H]3CO[C@](Cn4ccnc4)(c4ccc(Cl)cc4Cl)OC3)cc2)CC1 [Example 500015]	8 nM	12 nM	208 nM
CC(=O)N1CCN(c2ccc(CO[C@H]3CO[C@@](Cn4ccnc4)(c4ccccc4Cl)OC3)cc2)CC1 [Example 500004]	≥ 10000 nM	–	–
Clc1ccccc1[C@]1(Cn2ccnc2)OC[C@@H](OCc2ccc(-c3ccncc3)cc2)CO1 [Example 510017]	42 nM	440 nM	391 nM
